Data as given in patent US12606635B2, “Glypican-2-binding moieties, chimeric antigen receptors and uses thereof” (Nanjing Legend Biotech Co., Ltd., priority 2020, dated 2026).

Legend:
SH-SY5Y tumor cells = assay: In vitro repetitive challenge assay with Compound A; assay type: cell-based, human
Method: To evaluate the effect of 3-(4-amino-1-oxo-1,3 dihydro-2H-isoindol-2-yl)piperidine-2,6-dione (Compound A) on CAR T cell recursive killing potential, T cell expansion and survival, an in vitro repetitive challenge assay was employed. Exemplary CAS70950VH6-BBz CAR T cells on day 11 post-transduction were co-cultured with SH-SY5Y tumor cells at an effector (CAR T) to target cell ratio of 1:2. The co-culture media was supplemented with 10 μM Compound A throughout this study. CAR T cells were re-challenged with tumor cells every 3 days (round 1, round 2, round 3 and round 4). CAR T cells and tumor cells co-cultured without addition of Compound A was used as a control. The percentages of CD3^+ T cells, percentages of CD3^+CAR^+ T cells were analyzed by flow cytometer. The amount of IFNγ in the co-culture supernatant was quantified using HTRF human IFNγ AlphaLISA kit (Perkin Elmer, #62HIFNGPEH) as described in Example 6.

[1] = test system: neuroblastoma SH-SY5Y xenograft; assay: In vivo combination of Compound A and CAR T cells in SH-SY5Y xenograft; details: FIG. 12A
SH-SY5Y cells = assay: Cytotoxicity of CAR T cells in presence of Compound A gradient; assay type: cell-based, human; details: 0.04-30 μM Compound A, E:T 0.2:1, 20 hours, FIG. 10
Method: To evaluate if Compound A influence to the cytotoxicity of CAR T against tumor cell, Compound A (CAS Number:191732-72-6, Sigma-Aldrich, St. Louis) stock was serially diluted to final concentration of 30, 10, 3.33, 1.11, 0.37, 0.12 and 0.04 μM using complete growth medium. In the presence of Compound A gradient, CAR T cells were co-incubated with tumor cells at an effector (CAR T) to target cell ratio of 0.2:1 for 20 hours. CAR T cells and tumor cells co-cultured without addition of Compound A served as a control. Cytotoxicity of CAR T cells on tumor cells was estimated using the Cytotoxicity Detection Kit (LDH) (Roche, #11644793001) as described in Example 6.

[2] = test system: neuroblastoma SH-SY5Y xenograft; details: mouse, in vivo

promotion of CAR+ T cells expansion by Compound A co-administration [2]: about 6 fold
SMILES: Nc1cccc2c1CN(C1CCC(=O)NC1=O)C2=O (stereo not shown) [Compound A, 3-(4-amino-1-oxo-1,3 dihydro-2H-isoindol-2-yl)piperidine-2,6-dione]
IFNγ released from CAS70950VH6-BBz CAR T cells compared to non-treated CAR T cells (SH-SY5Y tumor cells; 10 μM Compound A): higher amount of IFNγ
CD3+CAR+ T cells survival and expansion after repetitive tumor challenges (SH-SY5Y tumor cells; CAS70950VH6-BBz CAR T cells with 10 μM Compound A, FIG. 11A-11B): promoted CD3^+CAR^+ T cells survival and expansion
effector activity of CAS70950VH6-BBz CAR T cells after repetitive tumor challenges (SH-SY5Y tumor cells; supplemented with 10 μM Compound A, FIG. 11A-11B): maintained their effector activity
tumor regression, Compound A in combination with CAS70950VH6-BBz CAR-T cells ([1]; Compound A 7.5 mg/kg i.p. 21 days plus 1.5×10^6 CAR+ T cells): more pronounced tumor regression
tumor growth, single treatment ([1]; twelve days after treatment, CAR T 1.5×10^6 i.v. or Compound A 7.5 mg/kg i.p. for 21 days): did not achieve any tumor suppression
effect of Compound A on cytotoxicity of CAS70950VH6-BBz CAR T cells against SH-SY5Y (SH-SY5Y cells): not impaired
